Reference: US7414072B2, “Aryl 5-thio-β-d-glucopyranoside derivatives and therapeutic agents for diabetes containing the same” (Taisho Pharmaceutical Co., Ltd., priority 2002, dated 2008)
Several values for one entry are separate records, joined by “and”; a condition that tells them apart may be missing. Equal values may be shown once.

| SMILES | melting point |
| --- | --- |
| CCc1ccc(Cc2ccccc2O[C@@H]2S[C@H](CO)[C@@H](O)[C@H](O)[C@H]2O)cc1 [Compound 1, 2′-(4′-ethylbenzyl)phenyl 5-thio-β-D-glucopyranoside] | 154 to 160 °C and 154 to 169 °C and 156.5 to 157.5 °C |
| CCc1ccc(Cc2cc(Cl)ccc2O[C@@H]2S[C@H](CO)[C@@H](O)[C@H](O)[C@H]2O)cc1 [Compound 2, 4′-chloro-2′-(4′-ethylbenzyl)phenyl 5-thio-β-D-glucopyranoside] | 173.5 to 177.5 °C |
| Cc1ccc(Cc2ccccc2O[C@@H]2S[C@H](CO)[C@@H](O)[C@H](O)[C@H]2O)cc1 [Compound 3, 2′-(4′-methylbenzyl)phenyl 5-thio-β-D-glucopyranoside] | 184 to 186 °C |
| COc1ccc(Cc2ccccc2O[C@@H]2S[C@H](CO)[C@@H](O)[C@H](O)[C@H]2O)cc1 [Compound 4, 2′-(4′-methoxybenzyl)phenyl 5-thio-β-D-glucopyranoside] | 166 to 167.5 °C |
| CCOc1ccc(Cc2ccccc2O[C@@H]2S[C@H](CO)[C@@H](O)[C@H](O)[C@H]2O)cc1 [Compound 5, 2′-(4′-ethoxybenzyl)phenyl 5-thio-β-D-glucopyranoside] | 182 to 183.5 °C |
| CCc1ccc(Cc2cc(C)ccc2O[C@@H]2S[C@H](CO)[C@@H](O)[C@H](O)[C@H]2O)cc1 [Compound 7, 2′-(4′-ethylbenzyl)-4′-methylphenyl 5-thio-β-D-glucopyranoside] | 154 to 156 °C |
| CCc1ccc(Cc2cc(F)ccc2O[C@@H]2S[C@H](CO)[C@@H](O)[C@H](O)[C@H]2O)cc1 [Compound 8, 2′-(4′-ethylbenzyl)-4′-fluorophenyl 5-thio-β-D-glucopyranoside] | 163 to 165.5 °C |
| OC[C@H]1S[C@@H](Oc2ccccc2Cc2ccc(F)cc2)[C@H](O)[C@@H](O)[C@@H]1O [Compound 9, 2′-(4′-fluorobenzyl)phenyl 5-thio-β-D-glucopyranoside] | 157 to 158.5 °C |
| CCc1ccc(Cc2cc(Br)ccc2O[C@@H]2S[C@H](CO)[C@@H](O)[C@H](O)[C@H]2O)cc1 [Compound 10, 4′-bromo-2′-(4′-ethylbenzyl)phenyl 5-thio-β-D-glucopyranoside] | 172 to 173.5 °C |
| OC[C@H]1S[C@@H](Oc2ccccc2Cc2ccccc2)[C@H](O)[C@@H](O)[C@@H]1O [Compound 11, 2′-benzylphenyl 5-thio-β-D-glucopyranoside] | 171 to 174 °C |
| CCc1ccc(Cc2cc(CO)ccc2O[C@@H]2S[C@H](CO)[C@@H](O)[C@H](O)[C@H]2O)cc1 [Compound 13, 2′-(4′-ethylbenzyl)-4′-(hydroxymethyl)phenyl 5-thio-β-D-glucopyranoside] | 202.5 to 205 °C |
| CCc1ccc(Cc2c(O)cccc2O[C@@H]2S[C@H](CO)[C@@H](O)[C@H](O)[C@H]2O)cc1 [Compound 14, 2′-(4′-ethylbenzyl)-3′-hydroxyphenyl 5-thio-β-D-glucopyranoside] | 238 to 242.5 °C |
| CCc1ccc(Cc2cc(C(=O)OC)ccc2O[C@@H]2S[C@H](CO)[C@@H](O)[C@H](O)[C@H]2O)cc1 [Compound 15, 2′-(4′-ethylbenzyl)-4′-methoxycarbonylphenyl 5-thio-β-D-glucopyranoside] | 196 to 198 °C |
| CCc1ccc(Cc2cc(C(=O)O)ccc2O[C@@H]2S[C@H](CO)[C@@H](O)[C@H](O)[C@H]2O)cc1 [Compound 16, 4′-carboxy-2′-(4′-ethylbenzyl)phenyl 5-thio-β-D-glucopyranoside] | 219 to 220.5 °C |
| CCc1ccc(Cc2ccc(OCOC)cc2O[C@@H]2S[C@H](CO)[C@@H](O)[C@H](O)[C@H]2O)cc1 [Compound 20, 2′-(4′-ethylbenzyl)-5′-(methoxymethyloxy)phenyl 5-thio-β-D-glucopyranoside] | 175.5 to 180 °C |
| CCc1ccc(Cc2ccc(O)cc2O[C@@H]2S[C@H](CO)[C@@H](O)[C@H](O)[C@H]2O)cc1 [Compound 21, 2′-(4′-ethylbenzyl)-5′-hydroxyphenyl 5-thio-β-D-glucopyranoside] | 172 to 173.5 °C |
| CCc1ccc(Cc2ccccc2O[C@@H]2S[C@H](COC(=O)OC)[C@@H](O)[C@H](O)[C@H]2O)cc1 [Compound 23, 2′-(4′-ethylbenzyl)phenyl 6-O-methoxycarbonyl 5-thio-β-D-glucopyranoside] | 102 to 104.5 °C |
| OC[C@H]1S[C@@H](Oc2ccccc2Cc2ccncc2)[C@H](O)[C@@H](O)[C@@H]1O [Compound 24] | 179 to 180 °C |
| OC[C@H]1S[C@@H](Oc2ccccc2OCc2ccccc2)[C@H](O)[C@@H](O)[C@@H]1O [Compound 25] | 148 to 150 °C |
| O=C(Nc1ccccc1)c1cc(Cl)ccc1O[C@@H]1S[C@H](CO)[C@@H](O)[C@H](O)[C@H]1O [Compound 27] | 96 to 105 °C |
| CCc1ccc(Cc2cc(Cl)cc(Cl)c2O[C@@H]2S[C@H](CO)[C@@H](O)[C@H](O)[C@H]2O)cc1 [Compound 31, 4′,6′-dichloro-2′-(4′-ethylbenzyl)phenyl 5-thio-β-D-glucopyranoside] | 72 to 80 °C |
| Cc1ccc(Nc2ccccc2O[C@@H]2S[C@H](CO)[C@@H](O)[C@H](O)[C@H]2O)cc1 [Compound 34, 2′-(p-Toluidino)phenyl 5-thio-β-D-glucopyranoside] | 152 to 153 °C |
| OC[C@H]1S[C@@H](Nc2ccccc2Cc2ccccc2)[C@H](O)[C@@H](O)[C@@H]1O [Compound 35] | 144 to 151 °C |

| SMILES | melting point |
| --- | --- |
| Cc1ccc(Cc2ccccc2O[C@@H]2S[C@H](CO)[C@@H](O)[C@H](O)[C@H]2O)nc1 [Compound 36] | 177 to 180 °C |
| Cc1csc(Cc2ccccc2O[C@@H]2S[C@H](CO)[C@@H](O)[C@H](O)[C@H]2O)n1 [Compound 37] | 197 to 200 °C |
| Cc1ccc(Sc2ccccc2O[C@@H]2S[C@H](CO)[C@@H](O)[C@H](O)[C@H]2O)cc1 [Compound 38] | 140 to 142 °C |
| CCc1ccc(Cc2ccc(CO)cc2O[C@@H]2S[C@H](CO)[C@@H](O)[C@H](O)[C@H]2O)cc1 [Compound 39, 2′-(4′-ethylbenzyl)-5′-(hydroxymethyl)phenyl 5-thio-β-D-glucopyranoside] | 206 to 211 °C |
| COC(=O)c1ccc(Cc2cc(Cl)ccc2O[C@@H]2S[C@H](CO)[C@@H](O)[C@H](O)[C@H]2O)cc1 [Compound 40, 4′-chloro-2′-(4′-methoxycarbonylbenzyl)phenyl 5-thio-β-D-glucopyranoside] | 74 to 76 °C |
| O=[N+]([O-])c1ccc(Cc2cc(Cl)ccc2O[C@@H]2S[C@H](CO)[C@@H](O)[C@H](O)[C@H]2O)cc1 [Compound 41, 4′-chloro-2′-(4′-nitrobenzyl)phenyl 5-thio-β-D-glucopyranoside] | 180 to 182 °C |
| Nc1ccc(Cc2cc(Cl)ccc2O[C@@H]2S[C@H](CO)[C@@H](O)[C@H](O)[C@H]2O)cc1 [Compound 42, 2′-(4′-aminobenzyl)-4′-chlorophenyl 5-thio-β-D-glucopyranoside] | 206 to 208 °C |
| OC[C@H]1S[C@@H](Oc2ccccc2Cc2ccc(-n3cccn3)cc2)[C@H](O)[C@@H](O)[C@@H]1O [Compound 43, 2′-(4′-pyrazol-1′-ylbenzyl)phenyl 5-thio-β-D-glucopyranoside] | 208 to 210 °C |
| OC[C@H]1S[C@@H](Oc2ccc(Cl)cc2Cc2ccccc2F)[C@H](O)[C@@H](O)[C@@H]1O [Compound 44, 4′-chloro-2′-(2′-fluorobenzyl)phenyl 5-thio-β-D-glucopyranoside] | 170 to 173 °C |
| CCCCOc1ccc(Cc2cc(Cl)ccc2O[C@@H]2S[C@H](CO)[C@@H](O)[C@H](O)[C@H]2O)cc1 [Compound 45, 2′-(4′-butoxybenzyl)-4′-chlorophenyl 5-thio-β-D-glucopyranoside] | 166 to 169 °C |
| CCCCc1ccc(Cc2cc(Cl)ccc2O[C@@H]2S[C@H](CO)[C@@H](O)[C@H](O)[C@H]2O)cc1 [Compound 46, 2′-(4′-butylbenzyl)-4′-chlorophenyl 5-thio-β-D-glucopyranoside] | 165 to 168 °C |
| CC(=O)Nc1ccc(Cc2cc(Cl)ccc2O[C@@H]2S[C@H](CO)[C@@H](O)[C@H](O)[C@H]2O)cc1 [Compound 47, 2′-(4′-acetylaminobenzyl)-4′-chlorophenyl 5-thio-β-D-glucopyranoside] | 235 to 236.5 °C |
| CCSc1ccc(Cc2ccccc2O[C@@H]2S[C@H](CO)[C@@H](O)[C@H](O)[C@H]2O)cc1 [Compound 48, 2′-(4′-ethylthiobenzyl)phenyl 5-thio-β-D-glucopyranoside] | 174 to 176.5 °C |
| CCc1ccc(Cc2cccc(O[C@@H]3S[C@H](CO)[C@@H](O)[C@H](O)[C@H]3O)c2)cc1 [Compound 49] | 132 to 134 °C |
| CCc1ccc(Cc2ccc(O[C@@H]3S[C@H](CO)[C@@H](O)[C@H](O)[C@H]3O)cc2)cc1 [Compound 50] | 137 to 138.5 °C |
| CS(=O)(=O)Nc1ccc(Cc2cc(Cl)ccc2O[C@@H]2S[C@H](CO)[C@@H](O)[C@H](O)[C@H]2O)cc1 [Compound 51, 4′-chloro-2′-(4′-methylsulfonylaminobenzyl)phenyl 5-thio-β-D-glucopyranoside] | 151 to 153 °C |
| CN(C)c1ccc(Cc2cc(Cl)ccc2O[C@@H]2S[C@H](CO)[C@@H](O)[C@H](O)[C@H]2O)cc1 [Compound 52, 4′-chloro-2′-(4′-N,N-dimethylaminobenzyl)phenyl 5-thio-β-D-glucopyranoside] | 183 to 184 °C |
| OC[C@H]1S[C@@H](Oc2c(Cc3c(F)cccc3Cl)cc(Cl)cc2Cc2c(F)cccc2Cl)[C@H](O)[C@@H](O)[C@@H]1O [Compound 53] | 112 to 118 °C |
| CCn1cc(Cc2ccccc2O[C@@H]2S[C@H](CO)[C@@H](O)[C@H](O)[C@H]2O)cn1 [Compound 54] | 175 to 177.5 °C |
| Cn1cc(Cc2ccccc2O[C@@H]2S[C@H](CO)[C@@H](O)[C@H](O)[C@H]2O)cn1 [Compound 55] | 148.5 to 149.5 °C |
| OCc1ccc(Cc2ccccc2O[C@@H]2S[C@H](CO)[C@@H](O)[C@H](O)[C@H]2O)cc1 [Compound 56, 2′-(4′-hydroxymethylbenzyl)phenyl 5-thio-β-D-glucopyranoside] | 184 to 186.5 °C |
| CCc1cccc(Cc2ccccc2O[C@@H]2S[C@H](CO)[C@@H](O)[C@H](O)[C@H]2O)c1 [Compound 57] | 144 to 145 °C |
